Data taken from the NIST ThermoML archive (doi:10.1021/je100220c).

Experiment: excess molar enthalpy (molar enthalpy of mixing); xn = mol fraction of the nth substance listed
Settings: Liquid, Flow calorimetry

CC(C)=O [acetone] + O=C=O
excess molar enthalpy [kcal/mol]
Settings	313.15 K	323.15 K	333.15 K
9000 kPa, x2 = 0.095	-0.109	–	–
9000 kPa, x2 = 0.102	–	-0.174	-0.18
9000 kPa, x2 = 0.158	–	-0.262	–
9000 kPa, x2 = 0.18	-0.223	–	-0.313
9000 kPa, x2 = 0.246	-0.287	-0.406	-0.424
9000 kPa, x2 = 0.319	–	-0.512	–
9000 kPa, x2 = 0.337	-0.357	–	-0.571
9000 kPa, x2 = 0.424	–	-0.643	-0.702
9000 kPa, x2 = 0.432	-0.446	–	–
9000 kPa, x2 = 0.507	-0.484	-0.749	-0.8
9000 kPa, x2 = 0.586	-0.532	-0.834	–
9000 kPa, x2 = 0.625	–	–	-0.958
9000 kPa, x2 = 0.662	-0.547	–	–
9000 kPa, x2 = 0.699	–	-0.957	-1.02
9000 kPa, x2 = 0.771	-0.565	-0.998	-1.04
9000 kPa, x2 = 0.805	–	-0.998	–
9000 kPa, x2 = 0.807	–	–	-1
9000 kPa, x2 = 0.84	-0.534	-0.968	–
9000 kPa, x2 = 0.9	-0.487	–	–
9000 kPa, x2 = 0.906	–	-0.821	-0.485
9000 kPa, x2 = 0.938	-0.415	-0.624	-0.289
9000 kPa, x2 = 0.969	-0.287	-0.271	–
12000 kPa, x2 = 0.108	-0.0772	-0.0963	–
12000 kPa, x2 = 0.189	-0.137	–	–
12000 kPa, x2 = 0.209	–	-0.182	–
12000 kPa, x2 = 0.258	-0.175	–	–
12000 kPa, x2 = 0.305	–	-0.254	–
12000 kPa, x2 = 0.332	-0.22	–	–
12000 kPa, x2 = 0.351	–	-0.29	–
12000 kPa, x2 = 0.395	-0.251	–	–
12000 kPa, x2 = 0.438	–	-0.352	–
12000 kPa, x2 = 0.464	-0.279	–	–
12000 kPa, x2 = 0.562	-0.307	-0.403	–
12000 kPa, x2 = 0.646	–	-0.423	–
12000 kPa, x2 = 0.675	-0.316	–	–
12000 kPa, x2 = 0.747	–	-0.429	–
12000 kPa, x2 = 0.781	-0.287	–	–
12000 kPa, x2 = 0.801	–	-0.411	–
12000 kPa, x2 = 0.847	-0.245	–	–
12000 kPa, x2 = 0.879	–	-0.332	–
12000 kPa, x2 = 0.911	-0.176	–	–
12000 kPa, x2 = 0.941	–	-0.223	–
12000 kPa, x2 = 0.971	-0.0612	-0.132	–
15000 kPa, x2 = 0.111	-0.0662	-0.0736	-0.0887
15000 kPa, x2 = 0.194	-0.109	-0.127	–
15000 kPa, x2 = 0.215	–	–	-0.162
15000 kPa, x2 = 0.264	-0.148	-0.171	–
15000 kPa, x2 = 0.312	–	–	-0.225
15000 kPa, x2 = 0.34	-0.182	–	–
15000 kPa, x2 = 0.359	–	-0.216	–
15000 kPa, x2 = 0.404	–	–	-0.285
15000 kPa, x2 = 0.456	-0.217	–	–
15000 kPa, x2 = 0.473	–	-0.267	–
15000 kPa, x2 = 0.489	–	–	-0.326
15000 kPa, x2 = 0.53	-0.239	-0.283	–
15000 kPa, x2 = 0.586	-0.244	–	–
15000 kPa, x2 = 0.609	–	-0.297	-0.364
15000 kPa, x2 = 0.647	-0.244	–	–
15000 kPa, x2 = 0.683	–	-0.296	-0.372
15000 kPa, x2 = 0.719	-0.234	–	–
15000 kPa, x2 = 0.753	–	–	-0.36
15000 kPa, x2 = 0.787	-0.212	-0.268	–
15000 kPa, x2 = 0.82	–	–	-0.31
15000 kPa, x2 = 0.852	-0.173	-0.223	–
15000 kPa, x2 = 0.883	–	–	-0.248
15000 kPa, x2 = 0.913	-0.119	-0.156	–
15000 kPa, x2 = 0.915	–	–	-0.202
15000 kPa, x2 = 0.943	-0.087	-0.117	-0.156
15000 kPa, x2 = 0.972	-0.0457	-0.0633	-0.0817
18000 kPa, x2 = 0.114	-0.0631	-0.0648	–
18000 kPa, x2 = 0.198	-0.0997	–	–
18000 kPa, x2 = 0.219	–	-0.124	–
18000 kPa, x2 = 0.269	-0.129	–	–
18000 kPa, x2 = 0.318	–	-0.174	–
18000 kPa, x2 = 0.346	-0.161	–	–
18000 kPa, x2 = 0.41	-0.187	-0.211	–
18000 kPa, x2 = 0.479	-0.202	-0.233	–
18000 kPa, x2 = 0.577	-0.215	-0.248	–
18000 kPa, x2 = 0.652	-0.22	-0.245	–
18000 kPa, x2 = 0.724	-0.205	-0.231	–
18000 kPa, x2 = 0.791	-0.173	-0.205	–
18000 kPa, x2 = 0.855	-0.136	-0.167	–
18000 kPa, x2 = 0.915	-0.0915	-0.108	–
18000 kPa, x2 = 0.944	–	-0.0774	–
18000 kPa, x2 = 0.956	-0.0521	–	–
18000 kPa, x2 = 0.973	–	-0.0445	–
